This test relates to hyaluronidase. The experiment in a line: degradation of hyaluronic acid by standard hyaluronidase. The test is classed as biochemical. The source says: In the composition, the nicotinamide is not only a functional excipient adapted to protect the hyaluronic acid by virtue of its antioxidant action, but also acts against the action of the hyaluronidase, allowing the viscosupplementation features to be maintained over time. Experimental tests have shown that in a composition without nicotinamide, the hyaluronic acid is degraded by a 50% standard hyaluronidase after one hour; on the contrary, with a presence of nicotinamide in the percentages described above, the hyaluronic acid degrades by only 20% after one hour, while the normal products on the market degrade by 70%.

On to `NC(=O)c1cccnc1` [nicotinamide], for which the “inhibitory effect on hyaluronidase” value is recorded as “inhibitory effect on hyaluronidase”.

(Values after patent US12622863B2, “Injectable composition and use of said composition” (INNATE S.R.L., priority 2020, dated 2026).)
